According to US20190022225A1, “PROTOCOL FOR INCREASING LIFE EXPECTANCY IN A TEST SUBJECT” (Mayo Foundation for Medical Education and Research, priority 2015, published 2019):
“Also recorded” adds a separate entry of the source.

Columns and labels:
[1] = test system: non-senescent aortic endothelial (Endo Aort) cells and pre-adipocytes (Pread); assay: Nutlin-3a toxicity, cell counts of non-senescent endothelial cells and pre-adipocytes; assay type: cell-based; conditions: 0, 2.5, 10 μM, 11 days
Procedure: Non-senescent aortic endothelial (Endo Aort) cells and pre-adipocytes (Pread) were also treated with varying concentrations (0, 2.5 μM, and 10 μM) of Nutlin-3a for a period of 11 days to assess Nutlin-3a toxicity, as described above. Cell counts were taken at the start at Day 0 (NS start) and at the end of Nutlin-3a treatment (NS 0). The difference between counts of cells not treated with Nutlin-3a on day 11 (NS 0) and cell counts from NS start reflects the cell growth over the indicated time period. […] Decrease in apparent survival between NS 0 and NS 2.5 and between NS 0 and NS 10 reflects a decrease in cell growth.

[2] = test system: senescent cells in osteoarthritic joint of mice after ACL surgery; assay: Osteoarthritis mouse model (ACL surgery), intra-articular treatment; assay type: in vivo; conditions: for histopathology: destruction of the proteoglycan layer: Nutlin-3A in C57BL/6J, GCV 2.5 μg intra-articular in 3MR mice
Procedure: Parallel studies were performed. One study investigated the effect of eliminating senescent cells with ganciclovir (GCV) in 3MR mice. Mice underwent surgery to cut the anterior cruciate ligament of one rear limb to induce osteoarthritis in the joint of that limb. During week 2 post-surgery, 3MR mice received 2.5 μg GCV to the operated knee by intra-articular injection, qd for 5 days, with a 2nd treatment (2.5 μg GCV qd for 5 days) during week 4 post-surgery. At the end of 4 weeks post-surgery, operated joints of the mice were monitored for presence of senescent cells, assessed for function, monitored for markers of inflammation, and underwent histological assessment.
In a parallel study, C57BL/6J mice underwent surgery to cut the anterior cruciate ligament of one rear limb to induce osteoarthritis in the joint of that limb. During week 3 and week 4 post-surgery, the mice were treated with 5.8 μg of Nutlin-3A (n=7) per operated knee by intra-articular injection, qod for 2 weeks. At the end of 4 weeks post-surgery, joints of the mice were monitored for presence of senescent cells, assessed for function, monitored for markers of inflammation, and underwent histological assessment.
Two control groups of mice were included in the studies performed: one group comprising C57BL/6J or 3MR mice that had undergone a sham surgery (n=3) (i.e., surgical procedures followed except for cutting the ACL) and intra-articular injections of vehicle parallel to the GCV-treated group; and one group comprising C57BL/6J or 3MR mice that had undergone an ACL surgery and received intra-articular injections of vehicle (n=5) parallel to the GCV-treated group.
RNA from the operated joints of mice from the Nutlin-3A treated mice was analyzed for expression of SASP factors (mmp3, IL-6) and senescence markers (p16). qRT-PCR was performed to detect mRNA levels. […] RNA from the operated joints of mice was also analyzed for expression of type 2 collagen and compared with expression of actin as a control.
Function of the limbs was assessed 4 weeks post-surgery by a weight bearing test to determine which leg the mice favored (FIG. 39). The mice were allowed to acclimate to the chamber on at least 3 occasions prior to taking measurements. Mice were maneuvered inside the chamber to stand with 1 hind paw on each scale. The weight that was placed on each hind limb was measured over a 3-second period. At least 3 separate measurements were made for each animal at each time point. The results were expressed as the percentage of the weight placed on the operated limb versus the contralateral unoperated limb.
The function of the limbs was also assessed at 4 weeks post-surgery by hotplate analysis to show sensitivity and reaction to pain stimulus. In brief, a mouse was placed on a hotplate at 55° C. When placed on the hot surface of the plate, mice will lift their paws and lick them (paw-lick response) due to attainment of pain threshold. The latency period for the hind limb response (paw-lick response) is recorded as response time.
Histopathology of osteoarthritis induced by ACL surgery illustrated that the proteoglycan layer was destroyed.

LDLR−/− mice fed a HFD = assay: Atherosclerosis model, LDLR-/- mice on high fat diet treated with Nutlin-3A; assay type: in vivo, mouse
Excerpt: Schematics of two atherosclerosis mouse models are presented in FIGS. 43A-B. The study illustrated in FIG. 43A assessed the extent to which clearance of senescent cells from plaques in LDLR^−/− mice with Nutlin-3A reduces plaque load. Two groups of LDLR^−/− mice (10 weeks) are fed a high fat diet (HFD) (Harlan Teklad TD.88137) having 42% calories from fat, beginning at Week 0 and throughout the study. Two groups of LDLR^−/− mice (10 weeks) are fed normal chow (−HFD). From weeks 0-2, one group of HFD mice and −HFD mice are treated with Nutlin-3A (25 mg/kg, intraperitoneally). One treatment cycle is 14 days treatment, 14 days off. Vehicle is administered to one group of HFD mice and one group of −HFD mice. At week 4 (timepoint 1), one group of mice are sacrificed and to assess presence of senescent cells in the plaques. For the some of the remaining mice, Nutlin-3A and vehicle administration is repeated from weeks 4-6. At week 8 (timepoint 2), the mice are sacrificed and to assess presence of senescent cells in the plaques. The remaining mice are treated with Nutlin-3A or vehicle from weeks 8-10. At week 12 (timepoint 3), the mice are sacrificed and to assess the level of plaque and the number of senescent cells in the plaques.
Plasma lipid levels were measured in LDLR^−/− mice fed a HFD and treated with Nutlin-3A or vehicle at timepoint 1 as compared with mice fed a −HFD (n=3 per group). Plasma was collected mid-afternoon and analyzed for circulating lipids and lipoproteins.
At the end of timepoint 1, LDLR^−/− mice fed a HFD and treated with Nutlin-3A or vehicle were sacrificed (n=3, all groups), and the aortic arches were dissected for RT-PCR analysis of SASP factors and senescent cell markers. Values were normalized to GAPDH and expressed as fold-change versus age-matched, vehicle-treated LDLR^−/− mice on a normal diet.
At the end of timepoint 2, LDLR^−/− mice fed a HFD and treated with Nutlin-3A or vehicle (n=3 for all groups) were sacrificed, and aortic arches were dissected for RT-PCR analysis of SASP factors and senescent cell markers. Values were normalized to GAPDH and expressed as fold-change versus age-matched, vehicle-treated LDLR^−/− mice on a normal diet.
At the end of timepoint 3, LDLR^−/− mice fed a HFD and treated with Nutlin-3A or vehicle (n=3 for all groups) were sacrificed, and aortas were dissected and stained with Sudan IV to detect the presence of lipid. Body composition of the mice was analyzed by MRI, and circulating blood cells were counted by Hemavet. […] As shown in FIGS. 48A-B, the platelet and lymphocyte counts were equivalent between the Nutlin-3A and vehicle treated mice.

| SMILES | toxicity to non-senescent aortic endothelial cells and pre-adipocytes (percent growth) [1] | senescent cells in the joint (p16, IL-6, MMP13 mRNA) ([2]; 5.8 μg per operated knee intra-articular qod for 2 weeks, 4 weeks post-surgery) | weight bearing test (favoring the unoperated hind limb) ([2]; 4 weeks post-surgery) | hotplate paw-lick response time ([2]; 55° C., 4 weeks post-surgery) | histopathology: destruction of the proteoglycan layer [2] | type 2 collagen expression in operated joints ([2]; relative to actin, versus untreated OA surgery mice) | expression of SASP factors and senescent cell markers in aortic arch (LDLR−/− mice fed a HFD; after 1 treatment cycle (25 mg/kg ip, 14 days on, 14 days off)) | expression of SASP factors and senescent cell markers in aortic arch (LDLR−/− mice fed a HFD; multiple treatment cycles (timepoint 2)) | platelet and lymphocyte counts versus vehicle (LDLR−/− mice fed a HFD; timepoint 3) | mass and body fat composition (LDLR−/− mice fed a HFD; timepoint 3, HFD) | reduction of plaques in the descending aorta (LDLR−/− mice fed a HFD; timepoint 3, three treatment cycles, Sudan IV staining) |
| --- | --- | --- | --- | --- | --- | --- | --- | --- | --- | --- | --- |
| COc1ccc(C2=N[C@@H](c3ccc(Cl)cc3)[C@@H](c3ccc(Cl)cc3)N2C(=O)N2CCNC(=O)C2)c(OC(C)C)c1 [Nutlin-3a] | reduces proliferation but is non-toxic | clears senescent cells from the joint | abrogates this effect | decreases the response time in a significant manner; also recorded: reduces response time | completely abrogated this effect | drives ab initio collagen production | reduced expression of several SASP factors and senescent cell markers | reduced expression of most markers | equivalent | decreased mass and body fat composition | ~45% |
| Nc1nc(O)c2ncn(COC(CO)CO)c2n1 [ganciclovir] |  |  |  |  | same impact on pathophysiology of osteoarthritis as Nutlin-3A |  |  |  |  |  |  |
